ChEMBL document CHEMBL4359817 (J Med Chem, 2019)
Values after ≈ are worked out from the molar mass of the structure shown. Values belong to the compound of their own block, whether it stands above or below them.

Columns and labels:
[1] = Volume of distribution at steady state in iv or po dosed Han Wistar rat; type: ADME, organism-based; conditions: in vivo, read-out: Vdss
[2] = Clearance in iv or po dosed Han Wistar rat; type: ADME, organism-based; conditions: in vivo
[3] = Lipophilicity, log D of the compound at pH 7.4; type: physicochemical; conditions: buffer
[4] = Oral bioavailability in Han Wistar rat; type: ADME, organism-based; conditions: in vivo
[5] = Intrinsic clearance in human microsomes; type: ADME, Microsome
[6] = Intrinsic clearance in human hepatocytes assessed per million cells; type: ADME, cell-based, Hepatocyte; conditions: read-out: CLH
[7] = Intrinsic clearance in rat hepatocytes assessed per million cells; type: ADME, cell-based, Hepatocyte; conditions: read-out: CLH
[8] = Thermodynamic aqueous solubility of the compound at pH 7.4; type: physicochemical; conditions: read-out: Therm_solubility
[9] = Time at which plasma concentration stays above in vitro fGI50 for antiproliferative activity against human NCI-H1703 cells in SCID mouse at 100 mg/kg, po administered twice daily; type: organism-based; conditions: in vivo
[10] = Thermodynamic aqueous solubility of the compound at pH 7.4 using amorphous form of sample; type: physicochemical; conditions: read-out: Therm_solubility
[11] = Time at which plasma concentration stays above in vitro fGI50 for antiproliferative activity against human NCI-H1703 cells in SCID mouse at 100 mg/kg, po; type: organism-based; conditions: in vivo
[12] = Oral bioavailability in dog at 1 mg/kg; type: ADME, organism-based, Canis lupus familiaris; conditions: in vivo
[13] = Drug level in SCID mouse plasma xenografted with human NCI-H1703 cells at 100 mg/kg, po administered once daily via gavage for 21 days measured 24 hrs post-last dose; type: ADME, organism-based
[14] = Volume of distribution at steady state in dog at 1 mg/kg, po or 0.5 mg/kg, iv; type: ADME, organism-based, Canis lupus familiaris; conditions: in vivo, read-out: Vdss
[15] = Clearance in dog at 1 mg/kg, po or 0.5 mg/kg, iv; type: ADME, organism-based, Canis lupus familiaris; conditions: in vivo
[16] = Drug level in SCID mouse plasma xenografted with human NCI-H1703 cells assessed as free fraction at 100 mg/kg, po administered once daily via gavage for 21 days measured 24 hrs post-last dose; type: ADME, organism-based; conditions: in vivo
[17] = Drug level in SCID mouse plasma xenografted with human NCI-H1703 cells at 100 mg/kg, po administered once daily via gavage for 21 days measured 4 hrs post-last dose; type: ADME, organism-based
[18] = Thermodynamic aqueous solubility of the compound at pH 7.4 using crystalline form of sample; type: physicochemical; conditions: read-out: Therm_solubility
[19] = Drug level in SCID mouse plasma xenografted with human NCI-H1703 cells assessed as free fraction at 100 mg/kg, po administered once daily via gavage for 21 days measured 4 hrs post-last dose; type: ADME, organism-based; conditions: in vivo
[20] = Time at which plasma concentration stays above in vitro fGI50 for antiproliferative activity against human NCI-H1703 cells in nude mouse at 100 mg/kg, po; type: organism-based; conditions: in vivo
[21] = Time at which plasma concentration stays above in vitro GI50 for antiproliferative activity against human NCI-H1703 cells in SCID mouse at 100 mg/kg, po; type: organism-based; conditions: in vivo
[22] = Clearance in CD1 mouse at 100 mg/kg, po; type: ADME, organism-based; conditions: in vivo
[23] = Oral bioavailability in Han Wistar rat at 1 mg/kg; type: ADME, organism-based; conditions: in vivo
[24] = Clearance in Han Wistar rat at 1 mg/kg, po or 0.5 mg/kg, iv; type: ADME, organism-based; conditions: in vivo
[25] = Volume of distribution at steady state in Han Wistar rat at 1 mg/kg, po or 0.5 mg/kg, iv; type: ADME, organism-based; conditions: in vivo, read-out: Vdss
[26] = Volume of distribution at steady state in Han Wistar rat at 2 mg/kg, po or 0.5 mg/kg, iv; type: ADME, organism-based; conditions: in vivo, read-out: Vdss
[27] = Clearance in Han Wistar rat at 2 mg/kg, po or 0.5 mg/kg, iv; type: ADME, organism-based; conditions: in vivo
[28] = Oral bioavailability in Han Wistar rat at 2 mg/kg; type: ADME, organism-based; conditions: in vivo

logD ([3]; read-out: logD): 2.1
solubility thermodynamic [8]: 130 µM (≈ 50.4 µg/mL)
SMILES: O=C(Cc1ccccc1)Nc1nnc(N[C@@H]2CCN(c3nncs3)C2)s1

logD ([3]; read-out: logD): 2.5
solubility thermodynamic [8]: 3 µM (≈ 1.33 µg/mL)
SMILES: CC(=O)Nc1nnc(N2CC[C@@H](Nc3nnc(NC(=O)Cc4ccccc4)s3)C2)s1

Vd [1]: 1.9 L/kg
clearance [2]: 55 mL/min/kg
logD ([3]; read-out: logD): 2.6
solubility thermodynamic [10]: 329 µM (≈ 130 µg/mL)
bioavailability [4]: 0%
microsomal CLint [5]: < 3 µL/min/mg
hepatocyte CLint [7]: 8.7 µL/min/1e6 cells
SMILES: C[C@H](C(=O)Nc1nnc(N[C@@H]2CCN(c3cccnn3)C2)s1)c1ccccc1
Time [9]: 24 h
Time [11]: 15 h

logD ([3]; read-out: logD): 1.9
solubility thermodynamic [8]: 95 µM (≈ 38.2 µg/mL)
SMILES: Nc1nnc(N2CC[C@@H](Nc3nnc(NC(=O)Cc4ccccc4)s3)C2)s1

Vd [1]: 2.4 L/kg
bioavailability [12]: 60%
concentration at 24 h [13]: 3.63 µM
clearance [2]: 35 mL/min/kg
Vd [14]: 0.3 L/kg
logD ([3]; read-out: logD): 1.9
clearance [15]: 4 mL/min/kg
Cp(f) [16]: 0.592 µM
concentration at 4 h [17]: 3.57 µM
solubility thermodynamic [18]: 78 µM (≈ 32.1 µg/mL)
bioavailability [4]: 47%
microsomal CLint [5]: < 3 µL/min/mg
Cp(f) [19]: 0.582 µM
hepatocyte CLint [6]: < 1 µL/min/1e6 cells
hepatocyte CLint [7]: 4.6 µL/min/1e6 cells
SMILES: CO[C@H](C(=O)Nc1nnc(N[C@@H]2CCN(c3cccnn3)C2)s1)c1ccccc1
Time [11]: 24 h

logD ([3]; read-out: logD): 3.8
solubility thermodynamic [8]: < 0.8 µM
SMILES: O=C(Cc1ccccc1)Nc1nnc(N[C@@H]2CCN(c3nnc(NC(=O)Cc4ccccc4)s3)C2)s1

logD ([3]; read-out: logD): 3.2
solubility thermodynamic [8]: 10 µM (≈ 5.29 µg/mL)
SMILES: O=C(Cc1ccccc1)Nc1nnc(N[C@@H]2CCN(c3nnc(NC(=O)CC4CCOCC4)s3)C2)s1

logD ([3]; read-out: logD): 0.85
solubility thermodynamic [8]: 20 µM (≈ 7.93 µg/mL)
SMILES: Nc1nnc(N[C@@H]2CCN(c3ccc(NC(=O)Cc4ccccc4)nn3)C2)s1

Vd [1]: 0.6 L/kg
bioavailability [12]: 90%
clearance [2]: 12 mL/min/kg
logD ([3]; read-out: logD): 1.7
clearance [15]: 1 mL/min/kg
solubility thermodynamic [10]: 516 µM (≈ 213 µg/mL)
bioavailability [4]: 41%
microsomal CLint [5]: 3 µL/min/mg
hepatocyte CLint [6]: 3 µL/min/1e6 cells
hepatocyte CLint [7]: 4.1 µL/min/1e6 cells
SMILES: CO[C@H](C(=O)Nc1nnc(N[C@@H]2CCN(c3nccnn3)C2)s1)c1ccccc1
Time [20]: 24 h

logD ([3]; read-out: logD): 2.2
microsomal CLint [5]: 3 µL/min/mg
solubility thermodynamic [8]: > 228 µM
SMILES: O=C(NCc1ccccc1)c1nnc(N[C@@H]2CCN(c3nccnn3)C2)s1

Vd [1]: 1.6 L/kg
clearance [2]: 50 mL/min/kg
logD ([3]; read-out: logD): 2.2
bioavailability [4]: 2%
microsomal CLint [5]: 3 µL/min/mg
CL/F [22]: 101 mL/min/kg
hepatocyte CLint [6]: < 1 µL/min/1e6 cells
hepatocyte CLint [7]: 2 µL/min/1e6 cells
solubility thermodynamic [8]: 14 µM (≈ 5.34 µg/mL)
SMILES: O=C(Cc1ccccc1)Nc1nnc(N[C@@H]2CCN(c3cccnn3)C2)s1
Time [21]: 10 h

logD ([3]; read-out: logD): 1.3
solubility thermodynamic [8]: 150 µM (≈ 81.3 µg/mL)
SMILES: CN1CCC(CC(=O)Nc2nnc(N3CC[C@@H](Nc4nnc(NC(=O)Cc5ccccc5)s4)C3)s2)CC1

logD ([3]; read-out: logD): 2.24
bioavailability [23]: 12%
microsomal CLint [5]: < 3 µL/min/mg
clearance [24]: 100 mL/min/kg
hepatocyte CLint [7]: 31 µL/min/1e6 cells
solubility thermodynamic [8]: > 559 µM
Vd [25]: 2.7 L/kg
SMILES: O=C(NCc1ccccc1)c1nnc(N[C@@H]2CCN(c3cccnn3)C2)s1

logD ([3]; read-out: logD): 2.06
Vd [26]: 2 L/kg
clearance [27]: 54 mL/min/kg
bioavailability [28]: 83%
microsomal CLint [5]: < 3 µL/min/mg
hepatocyte CLint [7]: 5 µL/min/1e6 cells
solubility thermodynamic [8]: 94 µM (≈ 36 µg/mL)
SMILES: O=C(Cc1ccccc1)Nc1nnc(N[C@@H]2CCN(c3nccnn3)C2)s1

logD ([3]; read-out: logD): 1.8
solubility thermodynamic [8]: 5 µM (≈ 2.01 µg/mL)
SMILES: Nc1nnc(N[C@@H]2CCN(c3nnc(NC(=O)Cc4ccccc4)s3)C2)s1

Further lines, the compound ahead of its results:

SMILES: O=C(Cc1cccc(OC(F)(F)F)c1)Nc1ccc(CCCCc2nnc(NC(=O)Cc3ccccn3)s2)nn1
Vd [1]: 3 L/kg
clearance [2]: 14 mL/min/kg
logD [3]: 3.9
bioavailability [4]: 32%
microsomal CLint [5]: 15 µL/min/mg
hepatocyte CLint [6]: 8 µL/min/1e6 cells
hepatocyte CLint [7]: 30.2 µL/min/1e6 cells

SMILES: O=C(Cc1ccccc1)Nc1nnc(N[C@@H]2CCC[C@H]2Nc2nnc(NC(=O)Cc3ccccc3)s2)s1
logD ([3]; read-out: logD): 4.3

SMILES: CC(=O)N1CCCCC1CC(=O)Nc1nnc(N2CC[C@@H](Nc3nnc(NC(=O)Cc4ccccc4)s3)C2)s1 (some centres undefined)
logD ([3]; read-out: logD): 2.7
solubility thermodynamic [8]: 20 µM (≈ 11.4 µg/mL)

SMILES: O=C(Cc1ccccc1)Nc1nnc(CCCc2nnc(NC(=O)Cc3ccccc3)s2)s1
logD ([3]; read-out: logD): 3.6
solubility thermodynamic [8]: < 0.6 µM

SMILES: O=C(Cc1ccccc1)Nc1nnc(NCCNc2nnc(NC(=O)Cc3ccccc3)s2)s1
solubility thermodynamic [8]: < 3 µM

SMILES: O=C(Cc1ccccc1)Nc1nnc(CCCCc2nnc(NC(=O)Cc3ccccc3)s2)s1
solubility thermodynamic [8]: < 0.4 µM

SMILES: O=C(Cc1ccccc1)Nc1nnc(CCCCCc2nnc(NC(=O)Cc3ccccc3)s2)s1
solubility thermodynamic [8]: < 0.6 µM

SMILES: O=C(Cc1ccccc1)Nc1nnc(NC[C@H]2CCN(c3nnc(NC(=O)Cc4ccccc4)s3)C2)s1
logD ([3]; read-out: logD): > 4.2
solubility thermodynamic [8]: < 0.8 µM

SMILES: CN(CCN(C)c1nnc(NC(=O)Cc2ccccc2)s1)c1nnc(NC(=O)Cc2ccccc2)s1
logD ([3]; read-out: logD): 3.5
solubility thermodynamic [8]: < 1 µM

SMILES: O=C(Cc1ccccc1)Nc1nnc(CCSCCc2nnc(NC(=O)Cc3ccccc3)s2)s1
logD ([3]; read-out: logD): > 4
